According to ChEMBL document CHEMBL4033775, “Natural-Products-Inspired Use of the gem-Dimethyl Group in Medicinal Chemistry” (J Med Chem, 2018):
Converted amounts (≈) assume the structure as drawn.

Experiments:
Prothrombin = Prothrombin (Bos taurus, UniProt P00735); test: Inhibition of bovine plasma thrombin using chromogenix AB as substrate after 30 secs by UV-spectrophotometry
[1] = Inhibition of bacterial DNA gyrase subunit B; design: species or system Bacteria
[2] = molecular target: 5-hydroxytryptamine receptor 2C (Homo sapiens, UniProt P28335); test: Agonist activity at human 5-HT2C receptor expressed in mouse NIH/3T3 cells assessed as induction of IP3 formation after 0.5 hrs; assay type: functional, cell-based
Rattus norvegicus [3] = test: Anti-hypertensive activity in conscious spontaneously hypertensive Okamoto rat assessed as reduction in systolic blood pressure at 0.3 mg/kg, po measured up to 6 hrs post dose relative to control; assay type: functional; design: scale not given: the % may be the effect or the level left
Rattus norvegicus [4] = test: Anti-hypertensive activity in conscious spontaneously hypertensive Okamoto rat assessed as reduction in systolic blood pressure at 1 mg/kg, po measured up to 6 hrs post dose relative to control; assay type: functional; design: scale not given: the % may be the effect or the level left
A549 = test: Cytotoxicity against human A549 cells; assay type: functional, cell-based
Rattus norvegicus [5] = test: Anti-hypertensive activity in conscious spontaneously hypertensive Okamoto rat assessed as reduction in systolic blood pressure at 10 mg/kg, po measured up to 6 hrs post dose relative to control; assay type: functional; design: scale not given: the % may be the effect or the level left
Enterococcus faecalis = test: Antibacterial activity against Enterococcus faecalis; assay type: functional
Clostridioides difficile = test: Antibacterial activity against Clostridium difficile; assay type: functional
[6] = molecular target: Insulin-like growth factor 1 receptor (Homo sapiens, UniProt P08069); test: Antagonist activity at human GST-tagged IGF-1R (950 to […] residues) expressed in baculovirus after 5 mins in presence of [gamma33P]-ATP by top count method
[7] = system: Human immunodeficiency virus 1; test: Antiviral activity against HIV1 3B infected in human H9 cells after 4 days by ELISA; assay type: functional, cell-based; conditions: Human immunodeficiency virus 1, 3B, H9, 96 h
Staphylococcus aureus = test: Antibacterial activity against methicillin-resistant Staphylococcus aureus; assay type: functional
D(2) dopamine receptor = D(2) dopamine receptor (Homo sapiens, UniProt P14416); test: Displacement of [3H]methylspiperone from human D2 receptor expressed in HEK cells; assay type: cell-based
[8] = molecular target: 5-hydroxytryptamine receptor 2A (Homo sapiens, UniProt P28223)
[9] = Clearance in po dosed rat; assay type: ADME, organism-based; conditions: in vivo
[10] = system: Trypanosoma brucei brucei; test: Antitrypanosomal activity against Trypanosoma brucei brucei after 72 hrs by resazurin-based fluorescence assay; assay type: functional
1A9 = test: Cytotoxicity against human 1A9 cells; assay type: functional, cell-based
Homo sapiens = species: Homo sapiens; test: Antagonist activity at nAChR (unknown origin) relative to (+/-)-mecamylamine
[11] = system: Human immunodeficiency virus 1; test: Antiviral activity against HIV1; assay type: functional

Sequence of 5-hydroxytryptamine receptor 2C (P28335 whole entry): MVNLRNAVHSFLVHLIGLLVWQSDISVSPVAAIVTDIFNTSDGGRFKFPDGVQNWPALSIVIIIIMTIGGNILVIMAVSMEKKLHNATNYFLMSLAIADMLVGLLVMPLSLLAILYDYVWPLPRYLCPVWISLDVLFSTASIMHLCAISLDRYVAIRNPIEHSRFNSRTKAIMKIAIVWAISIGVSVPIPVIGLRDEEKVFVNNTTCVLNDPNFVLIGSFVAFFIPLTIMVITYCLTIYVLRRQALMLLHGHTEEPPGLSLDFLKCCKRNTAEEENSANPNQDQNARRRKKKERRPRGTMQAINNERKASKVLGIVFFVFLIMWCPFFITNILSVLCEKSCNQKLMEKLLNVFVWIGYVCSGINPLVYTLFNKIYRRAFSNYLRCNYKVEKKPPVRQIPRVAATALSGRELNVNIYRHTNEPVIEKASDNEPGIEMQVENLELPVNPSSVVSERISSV
Sequence of D(2) dopamine receptor (P14416 whole entry): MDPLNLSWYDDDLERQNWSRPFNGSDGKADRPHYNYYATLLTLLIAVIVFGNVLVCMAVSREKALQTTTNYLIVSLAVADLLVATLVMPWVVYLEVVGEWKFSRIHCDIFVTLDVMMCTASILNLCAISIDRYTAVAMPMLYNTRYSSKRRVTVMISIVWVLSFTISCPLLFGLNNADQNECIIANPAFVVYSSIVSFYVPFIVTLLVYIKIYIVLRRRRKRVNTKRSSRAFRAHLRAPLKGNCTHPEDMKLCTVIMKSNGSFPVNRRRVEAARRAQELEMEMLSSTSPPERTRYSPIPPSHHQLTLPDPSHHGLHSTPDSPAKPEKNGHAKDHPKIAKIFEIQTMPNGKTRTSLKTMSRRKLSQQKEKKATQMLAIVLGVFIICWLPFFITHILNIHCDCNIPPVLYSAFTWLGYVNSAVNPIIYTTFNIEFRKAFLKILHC
Sequence of Insulin-like growth factor 1 receptor (P08069 31-736 limits assumed): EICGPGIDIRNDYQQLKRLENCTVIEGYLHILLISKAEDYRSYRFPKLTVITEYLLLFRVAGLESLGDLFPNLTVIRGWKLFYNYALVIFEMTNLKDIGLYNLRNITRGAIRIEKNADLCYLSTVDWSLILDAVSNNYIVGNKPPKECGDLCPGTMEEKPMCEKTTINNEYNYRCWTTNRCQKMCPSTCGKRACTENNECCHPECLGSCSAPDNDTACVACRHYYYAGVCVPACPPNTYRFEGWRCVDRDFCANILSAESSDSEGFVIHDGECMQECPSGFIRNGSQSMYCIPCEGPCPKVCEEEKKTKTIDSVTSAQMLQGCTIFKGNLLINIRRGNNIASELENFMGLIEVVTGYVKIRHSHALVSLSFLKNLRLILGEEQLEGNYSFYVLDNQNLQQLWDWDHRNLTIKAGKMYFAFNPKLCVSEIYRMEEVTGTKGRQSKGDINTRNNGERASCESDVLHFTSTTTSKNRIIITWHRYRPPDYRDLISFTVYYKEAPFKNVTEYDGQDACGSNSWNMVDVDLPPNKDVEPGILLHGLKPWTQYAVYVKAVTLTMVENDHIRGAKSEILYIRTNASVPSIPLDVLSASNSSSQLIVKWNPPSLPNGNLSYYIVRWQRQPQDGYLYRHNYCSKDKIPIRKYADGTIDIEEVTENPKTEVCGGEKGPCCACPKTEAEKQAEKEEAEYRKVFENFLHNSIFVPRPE
Sequence of Insulin-like growth factor 1 receptor (P08069 741-1367 limits assumed): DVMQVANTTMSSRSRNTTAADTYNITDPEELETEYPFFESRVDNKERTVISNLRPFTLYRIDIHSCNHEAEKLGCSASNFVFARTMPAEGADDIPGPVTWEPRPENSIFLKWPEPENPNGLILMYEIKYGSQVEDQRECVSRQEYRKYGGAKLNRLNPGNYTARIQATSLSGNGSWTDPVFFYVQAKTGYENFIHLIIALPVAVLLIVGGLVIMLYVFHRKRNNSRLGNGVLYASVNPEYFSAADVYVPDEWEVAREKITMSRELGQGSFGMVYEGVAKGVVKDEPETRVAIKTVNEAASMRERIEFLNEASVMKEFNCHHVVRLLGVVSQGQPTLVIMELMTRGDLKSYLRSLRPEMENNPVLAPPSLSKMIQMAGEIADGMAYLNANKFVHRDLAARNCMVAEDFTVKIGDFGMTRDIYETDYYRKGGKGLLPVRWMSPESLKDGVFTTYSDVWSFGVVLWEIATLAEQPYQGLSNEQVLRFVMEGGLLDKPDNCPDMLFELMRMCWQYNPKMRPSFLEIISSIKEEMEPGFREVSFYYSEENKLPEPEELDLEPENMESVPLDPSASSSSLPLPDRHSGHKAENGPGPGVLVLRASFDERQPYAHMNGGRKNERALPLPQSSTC
Sequence of 5-hydroxytryptamine receptor 2A (P28223 whole entry): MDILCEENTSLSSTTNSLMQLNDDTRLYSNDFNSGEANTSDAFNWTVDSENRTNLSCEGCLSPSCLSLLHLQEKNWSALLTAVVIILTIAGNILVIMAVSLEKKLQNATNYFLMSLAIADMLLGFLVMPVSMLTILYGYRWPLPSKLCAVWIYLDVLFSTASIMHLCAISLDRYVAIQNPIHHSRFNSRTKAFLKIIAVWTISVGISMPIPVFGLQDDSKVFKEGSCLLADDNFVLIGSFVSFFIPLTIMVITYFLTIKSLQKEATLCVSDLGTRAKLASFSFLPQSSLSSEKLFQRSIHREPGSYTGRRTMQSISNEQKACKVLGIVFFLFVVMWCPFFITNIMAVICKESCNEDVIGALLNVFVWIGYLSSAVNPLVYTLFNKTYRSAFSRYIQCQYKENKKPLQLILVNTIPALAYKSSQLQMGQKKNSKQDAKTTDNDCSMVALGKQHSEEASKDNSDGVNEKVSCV

C[C@H]1CNc2c(cccc2S(=O)(=O)N[C@@H](CCCNC(=N)N)C(=O)N2CCC(CCO)CC2)C1
Ki (Prothrombin): 50 nM

CO[C@@H]1[C@@H](OC(=O)c2ccc(C)[nH]2)[C@@H](O)[C@H](Oc2ccc3c(O)c(NC(=O)c4ccc(O)c(CC=C(C)C)c4)c(=O)oc3c2Cl)OC1(C)C [CHLOROBIOCIN]
IC50 [1]: 30 nM

COc1ccc2c(c1)-c1c(cnn1C[C@H](C)N)C2(C)C
Ki [2]: 2.51 nM

CC1(C)Oc2ccc([N+](=O)[O-])cc2[C@@H](N2CCCC2=O)[C@@H]1O
Activity (Rattus norvegicus [3]): 27%
Activity (Rattus norvegicus [4]): 63%

CO[C@H]1C(=O)[C@]2(C)[C@@H](OC)C[C@H]3OC[C@@]3(OC(C)=O)[C@H]2[C@H](OC(=O)c2ccccc2)[C@]2(O)C[C@H](OC(=O)[C@H](O)[C@@H](NC(=O)OC(C)(C)C)c3ccccc3)C(C)=C1C2(C)C [CABAZITAXEL]
IC50 (A549): 1.48 nM

O=C1CCCN1[C@@H]1c2cc([N+](=O)[O-])ccc2OC[C@H]1O
Activity (Rattus norvegicus [5]): 5%

CC1=C[C@@H]2[C@@H]([C@@H]3[C@H]1\C=C/C=C/C=C\[C@@H](O)[C@H](C)[C@H](O)C/C=C(C)/C=C/C(=O)O[C@H]3c1ccc(O)cc1)C(C)(C)C[C@@]2(C)O
MIC (Enterococcus faecalis): 0.3 µg/mL (≈ 0.51 µM)

CCc1c(Cl)c(O)c(Cl)c(O)c1C(=O)O[C@H]1[C@H](O)[C@H](OC)[C@H](OC/C2=C\C=C\C[C@H](O)/C(C)=C/[C@H](CC)[C@@H](O[C@@H]3OC(C)(C)[C@@H](OC(=O)C(C)C)[C@H](O)[C@@H]3O)/C(C)=C/C(C)=C/C[C@H]([C@@H](C)O)OC2=O)O[C@@H]1C
MIC90 (Clostridioides difficile): 0.125 to 0.25 µg/mL (≈ 0.118 to 0.236 µM)

CO[C@@H]1[C@@H](OC(N)=O)[C@@H](O)[C@H](Oc2ccc3c(O)c(NC(=O)c4ccc(O)c(CC=C(C)C)c4)c(=O)oc3c2C)OC1(C)C [NOVOBIOCIN]
IC50 [1]: 80 nM

CC(C)(Oc1cccc(-c2cn([C@H]3C[C@@H](CN4CCC4)C3)c3ncnc(N)c23)c1)[C@@H]1CCCO1
IC50 [6]: 10 nM

CC(=O)O[C@@H]1[C@H](OC(=O)CC(C)C)c2c(ccc3ccc(=O)oc23)OC1(C)C [SUKSDORFIN]
IC50 [7]: 2600 nM

Cc1cc(O)cc(O)c1-c1cc(O)cc2cc3c(c(O)c12)C(=O)c1c(O)cc(O)c(Cl)c1C3(C)C
MIC (Enterococcus faecalis): 0.8 µg/mL (≈ 1.62 µM)
MIC (Staphylococcus aureus): 3.1 µg/mL (≈ 6.29 µM)

CC1(C)CC(=O)N(CCCCN2CCN(c3ncccn3)CC2)C(=O)C1 [GEPIRONE]
Ki (D(2) dopamine receptor): 4320 nM
Ki [8]: 3630 nM

COc1ccc2c(c1)-c1c(cnn1C[C@H](C)N)C2
Ki [2]: 2.51 nM

N=C(N)NC(=O)[C@H]1C[C@@H]1c1cccc2c1CCO2
CL/F [9]: 120 mL/min/kg

CC1(C)OB(O)c2cc(NC(=O)c3ccc(F)cc3C(F)(F)F)ccc21 [ACOZIBOROLE]
IC50 [10]: 556 nM

C/C(=C\c1csc(C)n1)[C@@H]1C[C@@H]2O[C@]2(C)CCC[C@H](C)[C@H](O)[C@@H](C)C(=O)C(C)(C)[C@@H](O)CC(=O)O1 [PATUPILONE]
IC50 (1A9): 0.06 nM

CN[C@@]1(C)[C@H]2CC[C@@H](C2)C1(C)C
fold change (FC) (Homo sapiens): 3

CC(=O)O[C@@]12CO[C@@H]1C[C@H](O)[C@@]1(C)C(=O)[C@H](O)C3=C(C)[C@@H](OC(=O)[C@H](O)[C@@H](NC(=O)OC(C)(C)C)c4ccccc4)C[C@@](O)([C@@H](OC(=O)c4ccccc4)[C@H]21)C3(C)C [DOCETAXEL ANHYDROUS]
IC50 (1A9): 3.55 nM

C=C(C)[C@@H]1CC[C@]2(C(=O)O)CC[C@]3(C)[C@H](CC[C@@H]4[C@@]5(C)CC[C@H](O)C(C)(C)[C@@H]5CC[C@]43C)[C@@H]12 [BETULINIC ACID]
EC50 [11]: 1400 nM
